The test system of assay [1] is mesothelial cells. Description: Longterm (24 hours) exposure model, PDF diluted 1:1 with medium: viability by LDH release. Format: cell-based. Particulars: PDF diluted 1:1 with M199, L-alanyl-L-glutamine 0.5 and 10.0 g/L, compared to standard PDF. From the text: (§1) The acute recovery experimental setting as described for glutamine as a proof of principle for the cytoprotective PDF, is best representative for the early toxic effects of PDF, mainly due to low pH and lactate as major culprits. Alternate models such as a longterm exposure model to unused PDF diluted 1:1 with normal culture medium are better accepted tools to assess effects of cellular processes that occur in the peritoneum upon more extended exposure to PDF, as occurs in clinical PD. […] Additional control cultures are kept in pure regular culture media at 37° C. for the same time. At the end of the study, cell viability and protein expression are assessed in parallel cultures to identify the cytoprotective PDF.
(In general: LDH in the medium is a marker of cell lysis.)

The subject of assay [2] is HSP-72. Kind of assay: Longterm (24 hours) exposure model, PDF diluted 1:1 with medium: HSP-72 expression. Format: cell-based. Particulars: PDF diluted 1:1 with M199, L-alanyl-L-glutamine 0.5 and 10.0 g/L, compared to standard PDF.
Description: as §1

The subject of a further assay is peritoneal membrane. Kind of assay: In-vivo acute rat model of PD: barrier function of the peritoneal membrane. More on the design: species or system Sprague Dawley rats. Conditions: 4 hr dwell.
The test system of assay [3] is HSP-72. Kind of assay: In-vivo acute rat model of PD: HSP-72 expression in harvested mesothelial cells. More on the design: species or system Sprague Dawley rats. Conditions: 4 hr dwell, L-glutamine supplemented PDF vs standard PDF. How it is done:
After introduction of anaesthesia (ketamine 100 mg/kg and 5 mg/kg xylazine, intramusculary) the animals were placed on a heated small animal operating table. A sterile catheter was inserted into the peritoneal cavity through a small abdominal midline incision and 35 ml of test fluid (PDF with or without addition of L-glutamine at 4-10 mM) were slowly infused in 45-60 secs. The animal was gently moved, a small volume of peritoneal fluid aspirated, the catheter withdrawn and the abdomen sutured. Animals awoke within 20 minutes after the procedure and had free access to food and tap water. At 4 hours after the intraperitoneal injection animals were again anaesthetized, another small volume of peritoneal fluid was aspirated and animals were sacrificed by cardial puncture and exsanguinations. Thereafter, the abdomen was opened by a midline incision and the complete intraperitoneal fluid gently collected. The volumes of the collected fluids were recorded, and total cell count and differential counts at the two time pints (0 and 4 hours) were assessed by hand count after giemsa staining and by machine count by a coulter counter. […]
Western blotting: Protein content of mesothelial cell harvests was determined by Bradford assay (BioRad) and equal amounts of protein samples (5 μg/lane) were separated by standard SDS-PAGE using a Pharmacia Multiphore II unit. […]

Assay [4] deals with mesothelial cells. Description: In-vivo acute rat model of PD: mesothelial cell detachment. More on the design: species or system Sprague Dawley rats. Conditions: 4 hr dwell, intraperitoneal PDF with or without L-glutamine, mean+/-S.D.
Description: (§2) The studies were carried out on adult male inbred Sprague Dawley rats (average weight 310 g).
After introduction of anaesthesia (ketamine 100 mg/kg and 5 mg/kg xylazine, intramusculary) the animals were placed on a heated small animal operating table. A sterile catheter was inserted into the peritoneal cavity through a small abdominal midline incision and 35 ml of test fluid (PDF with or without addition of L-glutamine at 4-10 mM) were slowly infused in 45-60 secs. The animal was gently moved, a small volume of peritoneal fluid aspirated, the catheter withdrawn and the abdomen sutured. Animals awoke within 20 minutes after the procedure and had free access to food and tap water. At 4 hours after the intraperitoneal injection animals were again anaesthetized, another small volume of peritoneal fluid was aspirated and animals were sacrificed by cardial puncture and exsanguinations. Thereafter, the abdomen was opened by a midline incision and the complete intraperitoneal fluid gently collected. The volumes of the collected fluids were recorded, and total cell count and differential counts at the two time pints (0 and 4 hours) were assessed by hand count after giemsa staining and by machine count by a coulter counter. Total number of detached mesothelial cells was then computed for each rat. […]
Assay [5] deals with HSP-72. Kind of assay: In-vitro model of PD: HSP-72 expression by Western blotting. The assay is classed as cell-based, human. As for the experimental part:
Immortalized human mesothelial cells […], ATCC CRL-9444) were cultured in M199/MCDB 105 medium (1:1) supplemented with 100 units/ml penicillin, 100 µg/ml streptomycin and 10% FCS. Cultures were kept in 75 cm^2 tissue culture flasks (Falcon, Becton Dickinson, Oxnard, Calif.) at 37° C. in 5% CO2 and passaged by regular trypsinization. Medium was changed every two to three days. Confluence was reached on average after 6 to 7 days. Confluent cultures were then exposed for 120 minutes to standard glucose-monomer and acidic lactate-based PDF (Fresenius 2, Bad Homburg, Germany), containing 1.5% anhydrous dextrose at pH 5.5, with or without addition of cytoprotective compound ([…] to 20 mM) and allowed to recover in regular growth medium for 16 hours. Control cultures were kept in regular culture media at 37° C. and underwent “sham media changes”, i.e.: exposure to PDF was paralleled by exposure to control medium. Western blotting: Protein content of mesothelial cell harvests was determined by Bradford assay (BioRad) and equal amounts of protein samples (5 μg/lane) were separated by standard SDS-PAGE using a Pharmacia Multiphore II unit. Size-fractionated proteins were transferred to PVDF membranes by semi-dry transfer in a Pharmacia Multiphore II Novablot unit. Membranes were blocked in 5% dry milk in TBS-Tween (10 mM Tris, 150 mM NaCl, 0.05% Tween 20, pH 8.0). Membranes were incubated with the HSP-72 antibody (SPA 810, Stressgen, B.C., Canada). Detection was accomplished by incubation with secondary, peroxidase-coupled antibodies (Sigma, USA) and enhanced chemiluminescence (ECL) using ECL Western blotting analysis system and protocols (Renaissance, NEN-Life Science Products, Boston, Mass., USA). Densitometry was performed with image analysis software (Molecular Analyst software, BioRad, USA). Differential expression of HSP-72 was derived from the ratio of specific signals in the linear range of the protein/signal intensity relationship, normalized to an internal standard, and compared between parallel experiments.
For orientation: In western blotting, separated proteins are transferred to a membrane and probed.

Assay [6] relates to Immortalized human mesothelial cells (Met5A, ATCC CRL-9444). Description: In-vitro model of PD: viability by LDH release. The assay is classed as cell-based. Conditions: for LDH release: % of negative control, mean+/-S.D. As for the experimental part: Immortalized human mesothelial cells (Met5A, ATCC CRL-9444) were cultured in M199/MCDB 105 medium (1:1) supplemented with 100 units/ml penicillin, 100 µg/ml streptomycin and 10% FCS. Cultures were kept in 75 cm^2 tissue culture flasks (Falcon, Becton Dickinson, Oxnard, Calif.) at 37° C. in 5% CO2 and passaged by regular trypsinization. Medium was changed every two to three days. Confluence was reached on average after 6 to 7 days.
Confluent cultures were then exposed for 120 minutes to standard glucose-monomer and acidic lactate-based PDF (Fresenius 2, Bad Homburg, Germany), containing 1.5% anhydrous dextrose at pH 5.5, with or without addition of cytoprotective compound (glutamine at 4 to 20 mM) and allowed to recover in regular growth medium for 16 hours. Control cultures were kept in regular culture media at 37° C. and underwent “sham media changes”, i.e.: exposure to PDF was paralleled by exposure to control medium.
Viability of cells was assessed by lactate dehydrogenase (LDH) analyses. Fifty μl aliquots of supernatants were removed after the described experimental setup and kept on 4° C. until analyzed within 48 hours. Measurements were performed in duplicates with Sigma TOX-7 LDH Kit according to the manufacturer instructions. LDH efflux was calculated as percentage of LDH values measured in each negative control experiment. Induction of HSP was assessed in parallel cultures as described below.

Where a SMILES comes first, the peptide text is derived from it.

Description for peritoneal membrane: as §2
After introduction of anaesthesia (ketamine 100 mg/kg and 5 mg/kg xylazine, intramusculary) the animals were placed on a heated small animal operating table. A sterile catheter was inserted into the peritoneal cavity through a small abdominal midline incision and 35 ml of test fluid (PDF with or without addition of L-glutamine at 4-10 mM) were slowly infused in 45-60 secs. The animal was gently moved, a small volume of peritoneal fluid aspirated, the catheter withdrawn and the abdomen sutured. Animals awoke within 20 minutes after the procedure and had free access to food and tap water. At 4 hours after the intraperitoneal injection animals were again anaesthetized, another small volume of peritoneal fluid was aspirated and animals were sacrificed by cardial puncture and exsanguinations. Thereafter, the abdomen was opened by a midline incision and the complete intraperitoneal fluid gently collected. The volumes of the collected fluids were recorded, and total cell count and differential counts at the two time pints (0 and 4 hours) were assessed by hand count after giemsa staining and by machine count by a coulter counter. Total number of detached mesothelial cells was then computed for each rat.
For testing the barrier function of the peritoneal membrane, creatinine, glucose and total protein were measured in dialysate (D) samples and creatinine in plasma (P) at the end of the protocol. D/P ratios for creatinine and D/D0 ratios for glucose were computed. Peritoneal loss of protein was calculated as final dialysate concentration×final volume.

On to `C[C@H](N)C(=O)N[C@@H](CCC(N)=O)C(=O)O` [L-alanyl-L-glutamine] (H-Ala-Gln-OH), for which the “Viability assessed by LDH release” value in the assay on mesothelial cells [1] was “preserved viability”. The HSP-72 expression entry with HSP-72 [2] was “increased”.
As to `NC(=O)CC[C@H](N)C(=O)O` [L-glutamine], the D/Do glucose in the assay with peritoneal membrane is listed as 0.469+/−0.04. For the same compound, the D/P creatinine with peritoneal membrane is on record as 0.375+/−0.11. The compound also displayed a Net ultrafiltration with peritoneal membrane of 5.4 ± 2.7 mL. Moreover, in the assay with peritoneal membrane (final dialysate concentration x final volume), the “Protein loss into the dialysate effluate” value was determined as 65 ± 4 mg. For the same compound, in the assay with HSP-72 [3], the “HSP-72 expression in rat mesothelial cells” value is “overexpression of HSP-72”. In addition, the Mesothelial cell detachment with mesothelial cells [4] is given as 38+/−38 cells. Further, the HSP-72 expression with HSP-72 [5] (control conditions (no PDF), relative to control, mean+/-S.D.) is on record as 234+/−221%; in the assay on HSP-72 [5] (control conditions, L-glutamine 8 and 10 mM), “increased”; in the assay on HSP-72 [5] (during exposure to PDF for 120 min, relative to control, mean+/-S.D.), 1895+/−1928%. Further, the LDH release in assay [6] (control conditions (no PDF)) is on record as 91+/−7%; in assay [6] (during exposure to PDF for 120 min, 16 hours recovery), 190+/−19%. In addition, in assay [6] (control conditions, L-glutamine up to 20 mM), the “Viability (LDH release)” value was “unchanged viability”.

For the origin of these results see patent US11534475B2, “Carbohydrate-based peritoneal dialysis fluid comprising glutamine residue” (ZYTOPROTEC GmbH, priority 2007, dated 2022).
